Earlier results as cited in patent US20260158012A1 (Beijing Creatron Institute Of Pharmaceutical Research Co. …, priority 2022, published 2026).
Where two headings read alike, the source gives them in different places. Each block holds one molecule with its values, some of them ahead of it.

Assays:
[1] = for Solubility (in words): aqueous media
[2] = system: advanced hepatocellular carcinoma
[3] = 7 consecutive days
[4] = dosage increased from 400 mg each time to 600 mg each time
[5] = not given; remark: listed apart in the source
[6] = trough concentration <1.40 μg/mL
[7] = trough concentration ≥3.45 μg/mL

Solubility [1]: <10 µg/mL
Solubility (in words) [1]: Practically insoluble in aqueous
SMILES: [2H]C([2H])([2H])NC(=O)c1cc(Oc2ccc(NC(=O)Nc3ccc(Cl)c(C(F)(F)F)c3)cc2)ccn1 [Donafenib, 4-[4-[[4-chloro-3-(trifluoromethyl)phenyl]carbamoylamino]phenoxy]-N-(trideuteriomethyl)pyridine-2-carboxamide]

SMILES: CNC(=O)c1cc(Oc2ccc(NC(=O)Nc3ccc(Cl)c(C(F)(F)F)c3)cc2)ccn1 [Sorafenib, 4-[4-[[4-chloro-3-(trifluoromethyl)phenyl]carbamoylamino]phenoxy]-N-methylpyridine-2-carboxamide]
steady state concentration in the blood (plasma) (after 2 weeks of treatment, renal cell carcinoma patients): 881-12,526 ng/mL
blood drug concentration of patients who experienced serious adverse reactions (human, in vivo): exceeded 10,000 ng/ml
incidence of fatigue (renal cell carcinoma patients): 55.32%
incidence of hand-foot syndrome (renal cell carcinoma patients): 68.99%
overall survival (OS) ([2]; 1.40 μg/mL≤Ctrough<3.45 μg/mL): 17.8 months
time to treatment failure (TTF) ([2]; 1.40 μg/mL≤Ctrough<3.45 μg/mL): 13.1 months
overall survival (OS) [2, 6]: 5.3 months
progression-free survival (PFS) [2, 6]: 4.7 months
time to treatment failure (TTF) [2, 6]: 4.7 months
incidence of serious adverse reactions above grade 3 ([2]; trough concentration below 3.45 μg/ml): 26.7%
incidence of serious adverse reactions above grade 3 ([2]; trough concentration exceeded 3.45 μg/ml): 72.7%
overall survival (OS) [2, 7]: 9.5 months
progression-free survival (PFS) [2, 7]: 8.9 months
time to treatment failure (TTF) [2, 7]: 2.4 months
Solubility [1]: <10 µg/mL
oil-water partition coefficient Log P [1]: about 5.6
Solubility (in words) [1]: Practically insoluble in aqueous
coefficient of variation of AUC0-12 h at steady state ([3]; 200 mg (Bid) oral): 16.9%
coefficient of variation of Cmax at steady state ([3]; 200 mg (Bid) oral): 8.6%
coefficient of variation of AUC0-12 h at steady state ([3]; 400 mg (Bid) oral): 90.5%
coefficient of variation of Cmax at steady state ([3]; 400 mg (Bid) oral): 106.7%
increase in drug exposure [4]: 13%
concentration of sorafenib molecules in the solution ([5]; pH 1.0): 3400 ng/mL
concentration of sorafenib molecules in the solution ([5]; pH 4.5): 130 ng/mL
